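Growth conditions: 96-well plates. Treatment: test compound, 48 hours, 5 concentrations. Analysis: linear interpolation between bracketing concentrations; unreached endpoints set to highest concentration. The concentration for full growth arrest is given as TGI.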
Assays:
Test in all cases: growth of human tumour cells (NCI), 48 h
A549 NSCLC = tested on: A549 NSCLC
SF-539 CNS = tested on: SF-539 CNS
SNB-19 CNS = tested on: SNB-19 CNS
EKVX NSCLC = tested on: EKVX NSCLC
SF-295 CNS = tested on: SF-295 CNS
SK-MEL-28 melanoma = tested on: SK-MEL-28 melanoma
DU-145 prostate = tested on: DU-145 prostate
BT-549 breast = tested on: BT-549 breast
MDA-N = tested on: MDA-N
SNB-75 CNS = tested on: SNB-75 CNS
HCT-116 colon = tested on: HCT-116 colon
HT29 colon = tested on: HT29 colon
OVCAR-3 ovarian = tested on: OVCAR-3 ovarian
T-47D breast = tested on: T-47D breast
LOX IMVI melanoma = tested on: LOX IMVI melanoma
UO-31 renal = tested on: UO-31 renal
HOP-92 NSCLC = tested on: HOP-92 NSCLC
NCI-H226 lung = tested on: NCI-H226 lung
NCI/ADR-RES ovarian = tested on: NCI/ADR-RES ovarian
SN12C renal = tested on: SN12C renal
NCI-H23 lung = tested on: NCI-H23 lung
M14 melanoma = tested on: M14 melanoma
UACC-257 melanoma = tested on: UACC-257 melanoma
TK-10 renal = tested on: TK-10 renal
COLO 205 colon = tested on: COLO 205 colon
MOLT-4 leukemia = tested on: MOLT-4 leukemia
IGROV1 ovarian = tested on: IGROV1 ovarian
MCF7 breast = tested on: MCF7 breast
SK-MEL-5 melanoma = tested on: SK-MEL-5 melanoma
SK-MEL-2 melanoma = tested on: SK-MEL-2 melanoma
OVCAR-8 ovarian = tested on: OVCAR-8 ovarian
SW-620 colon = tested on: SW-620 colon
ACHN renal = tested on: ACHN renal
PC-3 prostate = tested on: PC-3 prostate
U251 CNS = tested on: U251 CNS
HOP-62 NSCLC = tested on: HOP-62 NSCLC
786-0 renal = tested on: 786-0 renal
CAKI-1 renal = tested on: CAKI-1 renal
HL-60(TB) leukemia = tested on: HL-60(TB) leukemia
SK-OV-3 ovarian = tested on: SK-OV-3 ovarian
OVCAR-5 ovarian = tested on: OVCAR-5 ovarian
MDA-MB-435 = tested on: MDA-MB-435
MDA-MB-231 breast = tested on: MDA-MB-231 breast
UACC-62 melanoma = tested on: UACC-62 melanoma
KM12 colon = tested on: KM12 colon
A498 renal = tested on: A498 renal
OVCAR-4 ovarian = tested on: OVCAR-4 ovarian
HCT-15 colon = tested on: HCT-15 colon
HS 578T breast = tested on: HS 578T breast
SR leukemia = tested on: SR leukemia
SF-268 CNS = tested on: SF-268 CNS
K-562 leukemia = tested on: K-562 leukemia
RXF 393 renal = tested on: RXF 393 renal
HCC-2998 colon = tested on: HCC-2998 colon
MALME-3M melanoma = tested on: MALME-3M melanoma
RPMI-8226 leukemia = tested on: RPMI-8226 leukemia
NCI-H460 lung = tested on: NCI-H460 lung

Measured: TGI

O=c1[nH]c2ccccc2c(O)c1/C=N/C(=S)NCc1ccccc1
> 100 µM: A549 NSCLC | SF-539 CNS | SNB-19 CNS | EKVX NSCLC | SF-295 CNS | SK-MEL-28 melanoma | DU-145 prostate | BT-549 breast | MDA-N | SNB-75 CNS | HCT-116 colon | HT29 colon | OVCAR-3 ovarian | T-47D breast | LOX IMVI melanoma | UO-31 renal | HOP-92 NSCLC | NCI-H226 lung | NCI/ADR-RES ovarian | SN12C renal | NCI-H23 lung | M14 melanoma | UACC-257 melanoma | TK-10 renal | COLO 205 colon | MOLT-4 leukemia | IGROV1 ovarian | MCF7 breast | SK-MEL-5 melanoma | SK-MEL-2 melanoma | OVCAR-8 ovarian | SW-620 colon | ACHN renal | PC-3 prostate | U251 CNS | HOP-62 NSCLC | 786-0 renal | CAKI-1 renal | HL-60(TB) leukemia | SK-OV-3 ovarian | OVCAR-5 ovarian | MDA-MB-435 | MDA-MB-231 breast | UACC-62 melanoma | KM12 colon

CSCCCS/C1=C/CCCCCCCCCC1
> 100 µM: A549 NSCLC | SF-539 CNS | SNB-19 CNS | EKVX NSCLC | SF-295 CNS | A498 renal | OVCAR-4 ovarian | SK-MEL-28 melanoma | HCT-15 colon | HS 578T breast | DU-145 prostate | MDA-N | SR leukemia | SNB-75 CNS | HCT-116 colon | HT29 colon | OVCAR-3 ovarian | T-47D breast | LOX IMVI melanoma | UO-31 renal | HOP-92 NSCLC | SF-268 CNS | NCI-H226 lung | NCI/ADR-RES ovarian | SN12C renal | NCI-H23 lung | K-562 leukemia | M14 melanoma | UACC-257 melanoma | TK-10 renal | COLO 205 colon | MOLT-4 leukemia | RXF 393 renal | IGROV1 ovarian | HCC-2998 colon | MALME-3M melanoma | MCF7 breast | SK-MEL-5 melanoma | SK-MEL-2 melanoma | RPMI-8226 leukemia | ACHN renal | PC-3 prostate | U251 CNS | HOP-62 NSCLC | 786-0 renal | CAKI-1 renal | HL-60(TB) leukemia | SK-OV-3 ovarian | OVCAR-5 ovarian | NCI-H460 lung | MDA-MB-435 | MDA-MB-231 breast | UACC-62 melanoma | KM12 colon

— PubChem BioAssay (NCI)
